Test results taken from patent publication US11999727B2 (Tango Therapeutics, Inc., priority 2020, dated 2024).

Columns and labels:
[1] = molecular target: T1, PRMT5 (Homo sapiens, UniProt O14744); experiment: PRMT5 biochemical IC50 assay with no cofactor; details: PRMT5, no cofactor; read-out: No Cofactor/ rel IC50
T1 construct: purchased Viva (custom protein)
Source text: Table 1 indicates IC50 values (μM) against PRMT5 for exemplary compounds in the presence of SAM as cofactor, with no cofactor, and with MTA as cofactor, respectively (columns 4-6). […] Ki values can be calculated from the IC50 values as described in the Examples section. As detailed in the Examples section, for the assay performed in the presence of SAM, IC50=Ki×1.5 (Ki=IC50/1.5).

[2] = system: HAP1 MTAP-intact cell line; experiment: SDMA in-cell western assay, HAP1 MTAP-intact; assay type: cell-based; details: Homo sapiens, HAP1, SDMA in-cell western, HAP1 MTAP-intact; read-out: MTAP HAP1 intact IC50
Method in brief: (§1)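 Readout: in-cell western detection of SDMA. Cells: HAP1 expressing endogenous MTAP and an MTAP-null HAP1 counterpart. Output: IC50.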

[3] = system: HAP1 MTAP-deleted cell line; experiment: Viability assay, MTAP-deleted cell line; assay type: cell-based; details: Homo sapiens, HAP1, viability assay, MTAP-deleted cell line; read-out: HAP1 MTAP deleted viability
Source text: Table 1 additionally indicates IC50 values in a viability assay for the MTAP-deleted cell line (column 10), indicating the effect of treatment with compound on cell survival.

[4] = molecular target: T1, PRMT5; experiment: PRMT5 biochemical IC50 assay with SAM as cofactor; details: PRMT5, SAM as cofactor; read-out: SAM IC50
[5] = molecular target: T1, PRMT5; experiment: PRMT5 biochemical IC50 assay with MTA as cofactor; details: PRMT5, MTA as cofactor; read-out: MTA IC50
[6] = system: HAP1 MTAP-deleted cell line; experiment: SDMA in-cell western assay, HAP1 MTAP-deleted; assay type: cell-based; details: for IC50: Homo sapiens, HAP1, SDMA in-cell western, HAP1 MTAP-deleted, read-out: HAP 1 MTAP deleted IC50; for MTAP intact/deleted ratio: IC50 ratio HAP1 MTAP-intact / HAP1 MTAP-deleted, SDMA in-cell western
Method in brief: as §1

T1 sequence (O14744 whole entry): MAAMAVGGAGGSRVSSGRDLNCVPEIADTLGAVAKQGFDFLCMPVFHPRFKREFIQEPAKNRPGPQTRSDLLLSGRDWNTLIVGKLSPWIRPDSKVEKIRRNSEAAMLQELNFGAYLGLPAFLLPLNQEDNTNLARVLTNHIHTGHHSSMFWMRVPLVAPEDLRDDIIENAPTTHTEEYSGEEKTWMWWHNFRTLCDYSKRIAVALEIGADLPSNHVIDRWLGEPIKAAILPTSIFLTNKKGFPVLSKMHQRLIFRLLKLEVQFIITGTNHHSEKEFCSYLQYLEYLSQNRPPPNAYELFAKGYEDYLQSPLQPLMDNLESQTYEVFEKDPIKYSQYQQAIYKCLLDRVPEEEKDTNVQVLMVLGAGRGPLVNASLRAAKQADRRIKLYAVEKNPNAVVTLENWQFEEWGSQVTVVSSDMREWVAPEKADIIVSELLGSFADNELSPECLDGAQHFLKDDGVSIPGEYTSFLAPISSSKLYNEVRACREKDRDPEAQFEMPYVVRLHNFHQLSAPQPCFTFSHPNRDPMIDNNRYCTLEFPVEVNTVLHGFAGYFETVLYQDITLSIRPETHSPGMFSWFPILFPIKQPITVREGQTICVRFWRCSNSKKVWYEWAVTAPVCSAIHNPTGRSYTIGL
T1 sequence (Q9BQA1 whole entry partner): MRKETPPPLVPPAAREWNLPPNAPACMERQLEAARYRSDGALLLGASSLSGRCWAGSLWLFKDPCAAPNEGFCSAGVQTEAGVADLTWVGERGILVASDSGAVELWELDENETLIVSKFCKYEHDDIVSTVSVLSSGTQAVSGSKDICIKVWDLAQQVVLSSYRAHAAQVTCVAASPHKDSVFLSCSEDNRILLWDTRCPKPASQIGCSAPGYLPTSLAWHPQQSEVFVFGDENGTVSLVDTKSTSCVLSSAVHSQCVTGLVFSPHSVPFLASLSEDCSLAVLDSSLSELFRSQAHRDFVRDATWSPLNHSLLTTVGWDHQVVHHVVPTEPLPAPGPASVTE

SMILES | IC50 [1] | IC50 [2] | IC50 [4] | IC50 [5] | IC50 [6] | IC50 [3] | MTAP intact/deleted ratio [6]
NC(=O)c1cncc(NC(=O)C(=O)N2CC3CCC(C3)C2c2ccccc2)c1 (racemic) [Compound 86, rac-5-[[2-oxo-2-[(1R,4R,5S)-4-phenyl-3-azabicyclo[3.2.1]octan-3-yl]acetyl]amino]pyridine-3-carboxamide] | 50 to 500 nM | > 1000 nM | 50 to 500 nM | 50 to 500 nM | 100 to 1000 nM | > 10000 nM | A (an IC50 ratio greater than or equal to 10 fold)
Cc1cncc(NC(=O)C(=O)N2C[C@H](C)CC[C@H]2c2ccc(F)cc2)c1 (racemic) [Compound 89, rac-2-((2R,5S)-2-(4-fluorophenyl)-5-methylpiperidin-1-yl)-N-(5-methylpyridin-3-yl)-2-oxoacetamide] | 50 to 500 nM | > 1000 nM | > 500 nM | 50 to 500 nM | > 1000 nM | > 10000 nM | C (an IC50 ratio of less than 3 fold)
CNC(=O)c1ccc([C@H]2CC[C@H](C)CN2C(=O)C(=O)Nc2cncc(C)c2)cc1 (racemic) [Compound 92, N-methyl-4-(5-methyl-1-(2-((5-methylpyridin-3-yl)amino)-2-oxoacetyl)piperidin-2-yl)benzamide] | > 500 nM | > 1000 nM | > 500 nM | 50 to 500 nM | > 1000 nM | > 10000 nM | C (an IC50 ratio of less than 3 fold)
CC(=O)N1CCC(c2cccc(C3CCCCN3C(=O)C(=O)Nc3cnc(N)c(C)c3)c2)CC1 (racemic) [Compound 95, 2-(2-(3-(1-acetylpiperidin-4-yl)phenyl)piperidin-1-yl)-N-(6-amino-5-methylpyridin-3-yl)-2-oxoacetamide] | 50 to 500 nM | > 1000 nM | 50 to 500 nM | < 50 nM | < 100 nM | 1000 to 10000 nM | A (an IC50 ratio greater than or equal to 10 fold)

The next lines start with results.

IC50 [1] | IC50 [2] | IC50 [4] | IC50 [5] | IC50 [6] | SMILES | IC50 [3] | MTAP intact/deleted ratio [6]
> 500 nM | > 1000 nM | > 500 nM | 50 to 500 nM | 100 to 1000 nM | C[C@@H]1CC[C@@H](c2ccnn2C)N(C(=O)C(=O)Nc2cncc(C(N)=O)c2)C1 (racemic) [Compound 81, 5-(2-(5-methyl-2-(1-methyl-1H-pyrazol-5-yl)piperidin-1-yl)-2-oxoacetamido)nicotinamide] | > 10000 nM | A (an IC50 ratio greater than or equal to 10 fold)
> 500 nM | > 1000 nM | > 500 nM | 50 to 500 nM | > 1000 nM | Cc1cncc(NC(=O)C(=O)N2C[C@H](C)CC[C@H]2c2ccc3ccccc3c2)c1 (racemic) [Compound 83, rac-2-((2R,5S)-5-methyl-2-(naphthalen-2-yl)piperidin-1-yl)-N-(5-methylpyridin-3-yl)-2-oxoacetamide] | > 10000 nM | C (an IC50 ratio of less than 3 fold)
> 500 nM | > 1000 nM | > 500 nM | 50 to 500 nM | > 1000 nM | Cc1cncc(NC(=O)C(=O)N2C[C@H](C)CC[C@H]2c2cccc(N)c2)c1 (racemic) [Compound 91, 2-[(2R,5S)-2-(3-aminophenyl)-5-methyl-1-piperidyl]-N-(5-methyl-3-pyridyl)-2-oxo-acetamide] | > 10000 nM | C (an IC50 ratio of less than 3 fold)
50 to 500 nM | > 1000 nM | 50 to 500 nM | < 50 nM | < 100 nM | C[C@@H]1CC[C@@H](c2cccs2)N(C(=O)C(=O)Nc2cncc(C(N)=O)c2)C1 (racemic) [Compound 99, 5-(2-(5-methyl-2-(thiophen-2-yl)piperidin-1-yl)-2-oxoacetamido)nicotinamide] | 1000 to 10000 nM | A (an IC50 ratio greater than or equal to 10 fold)
